In ChEMBL document CHEMBL1144434, “Structure-activity relationships within a series of caspase inhibitors. Part 2: Heterocyclic warheads” (Bioorg Med Chem Lett, 2005):

biological target: T1, Caspase-1 (Mus musculus) (UniProt P29452); assay: Binding affinity against mouse Caspase-1; conditions: not given
T1 sequence (whole entry): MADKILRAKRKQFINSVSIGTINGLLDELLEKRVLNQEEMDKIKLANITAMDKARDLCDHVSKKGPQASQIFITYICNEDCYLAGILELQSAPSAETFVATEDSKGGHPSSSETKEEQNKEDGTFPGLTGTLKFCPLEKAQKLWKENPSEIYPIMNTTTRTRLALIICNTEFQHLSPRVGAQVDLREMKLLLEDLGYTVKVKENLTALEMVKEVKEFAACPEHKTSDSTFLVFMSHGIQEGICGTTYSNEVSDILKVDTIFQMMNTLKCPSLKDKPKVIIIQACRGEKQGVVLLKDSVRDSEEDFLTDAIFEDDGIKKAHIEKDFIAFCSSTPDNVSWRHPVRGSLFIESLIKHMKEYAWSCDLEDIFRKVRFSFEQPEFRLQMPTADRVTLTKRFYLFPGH

SMILES	k3/ki
CC(C)[C@H](NC(=O)COc1cccc2ccccc12)C(=O)N[C@@H](CC(=O)O)C(=O)COc1ncnc2ccccc12	83 1/m/s
CC(C)[C@H](NC(=O)COc1cccc2ccccc12)C(=O)N[C@@H](CC(=O)O)C(=O)COc1ccnc(C(F)(F)F)n1	24800 1/m/s
CC(C)[C@H](NC(=O)COc1cccc2ccccc12)C(=O)N[C@@H](CC(=O)O)C(=O)CSc1nc2ccccc2o1	0 1/m/s
CC(C)[C@H](NC(=O)COc1cccc2ccccc12)C(=O)N[C@@H](CC(=O)O)C(=O)COn1nnc2ccccc2c1=O	45400 1/m/s
CC(C)[C@H](NC(=O)COc1cccc2ccccc12)C(=O)N[C@@H](CC(=O)O)C(=O)COc1nc2ccccc2[nH]1	41 1/m/s
Cc1cc(C)nc(OCC(=O)[C@H](CC(=O)O)NC(=O)[C@@H](NC(=O)COc2cccc3ccccc23)C(C)C)n1	10 1/m/s
CC(C)[C@H](NC(=O)COc1cccc2ccccc12)C(=O)N[C@@H](CC(=O)O)C(=O)COc1cc(C(F)(F)F)nn1-c1ccccc1	7570 1/m/s
CC(C)[C@H](NC(=O)COc1cccc2ccccc12)C(=O)N[C@@H](CC(=O)O)C(=O)CSc1ncc[nH]1	173 1/m/s
CC(C)[C@H](NC(=O)COc1cccc2ccccc12)C(=O)N[C@@H](CC(=O)O)C(=O)CSc1nccc(C(F)(F)F)n1	0 1/m/s

biological target: T2, Caspase-6 (Homo sapiens) (UniProt P55212); assay: Binding affinity against Caspase-6; conditions: not given
T2 sequence (whole entry): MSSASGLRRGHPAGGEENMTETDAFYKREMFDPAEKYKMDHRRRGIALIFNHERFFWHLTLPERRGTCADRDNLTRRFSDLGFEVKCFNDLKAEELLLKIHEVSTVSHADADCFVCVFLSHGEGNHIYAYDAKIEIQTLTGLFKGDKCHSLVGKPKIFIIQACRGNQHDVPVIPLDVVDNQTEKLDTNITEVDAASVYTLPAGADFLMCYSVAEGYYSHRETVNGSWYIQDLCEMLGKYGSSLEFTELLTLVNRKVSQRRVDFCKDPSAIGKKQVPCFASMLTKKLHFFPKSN

SMILES	k3/ki
CC(C)[C@H](NC(=O)COc1cccc2ccccc12)C(=O)N[C@@H](CC(=O)O)C(=O)COc1ncnc2ccccc12	0 1/m/s
CC(C)[C@H](NC(=O)COc1cccc2ccccc12)C(=O)N[C@@H](CC(=O)O)C(=O)COc1ccnc(C(F)(F)F)n1	5150 1/m/s
CC(C)[C@H](NC(=O)COc1cccc2ccccc12)C(=O)N[C@@H](CC(=O)O)C(=O)COn1nnc2ccccc2c1=O	44000 1/m/s
CC(C)[C@H](NC(=O)COc1cccc2ccccc12)C(=O)N[C@@H](CC(=O)O)C(=O)COc1nc2ccccc2[nH]1	0 1/m/s
Cc1cc(C)nc(OCC(=O)[C@H](CC(=O)O)NC(=O)[C@@H](NC(=O)COc2cccc3ccccc23)C(C)C)n1	0 1/m/s
CC(C)[C@H](NC(=O)COc1cccc2ccccc12)C(=O)N[C@@H](CC(=O)O)C(=O)COc1cc(C(F)(F)F)nn1-c1ccccc1	23900 1/m/s
CC(C)[C@H](NC(=O)COc1cccc2ccccc12)C(=O)N[C@@H](CC(=O)O)C(=O)CSc1ncc[nH]1	22 1/m/s
CC(C)[C@H](NC(=O)COc1cccc2ccccc12)C(=O)N[C@@H](CC(=O)O)C(=O)CSc1nccc(C(F)(F)F)n1	0 1/m/s

biological target: T3, Caspase-3 (Homo sapiens) (UniProt P42574); assay: Binding affinity against Caspase-3; conditions: not given
T3 sequence (whole entry): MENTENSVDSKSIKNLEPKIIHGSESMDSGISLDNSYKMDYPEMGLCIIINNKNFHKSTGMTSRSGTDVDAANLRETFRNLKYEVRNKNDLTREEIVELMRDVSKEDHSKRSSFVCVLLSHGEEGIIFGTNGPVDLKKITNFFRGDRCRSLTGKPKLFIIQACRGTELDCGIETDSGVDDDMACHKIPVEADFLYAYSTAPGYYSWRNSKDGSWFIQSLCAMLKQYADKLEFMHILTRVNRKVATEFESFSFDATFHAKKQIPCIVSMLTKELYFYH

SMILES	k3/ki
CC(C)[C@H](NC(=O)COc1cccc2ccccc12)C(=O)N[C@@H](CC(=O)O)C(=O)COc1ncnc2ccccc12	343 1/m/s
CC(C)[C@H](NC(=O)COc1cccc2ccccc12)C(=O)N[C@@H](CC(=O)O)C(=O)COc1ccnc(C(F)(F)F)n1	114000 1/m/s
CC(C)[C@H](NC(=O)COc1cccc2ccccc12)C(=O)N[C@@H](CC(=O)O)C(=O)CSc1nc2ccccc2o1	0 1/m/s
CC(C)[C@H](NC(=O)COc1cccc2ccccc12)C(=O)N[C@@H](CC(=O)O)C(=O)COn1nnc2ccccc2c1=O	169000 1/m/s
CC(C)[C@H](NC(=O)COc1cccc2ccccc12)C(=O)N[C@@H](CC(=O)O)C(=O)COc1nc2ccccc2[nH]1	958 1/m/s
Cc1cc(C)nc(OCC(=O)[C@H](CC(=O)O)NC(=O)[C@@H](NC(=O)COc2cccc3ccccc23)C(C)C)n1	283 1/m/s
CC(C)[C@H](NC(=O)COc1cccc2ccccc12)C(=O)N[C@@H](CC(=O)O)C(=O)COc1cc(C(F)(F)F)nn1-c1ccccc1	71100 1/m/s
CC(C)[C@H](NC(=O)COc1cccc2ccccc12)C(=O)N[C@@H](CC(=O)O)C(=O)CSc1ncc[nH]1	850 1/m/s
CC(C)[C@H](NC(=O)COc1cccc2ccccc12)C(=O)N[C@@H](CC(=O)O)C(=O)CSc1nccc(C(F)(F)F)n1	0 1/m/s

system: Jurkat; assay: Inhibitory concentration for cellular activity in jurkat assay; assay type: functional, cell-based; conditions: Homo sapiens

SMILES	IC50 [µM]
CC(C)[C@H](NC(=O)COc1cccc2ccccc12)C(=O)N[C@@H](CC(=O)O)C(=O)COc1ncnc2ccccc12	> 200
CC(C)[C@H](NC(=O)COc1cccc2ccccc12)C(=O)N[C@@H](CC(=O)O)C(=O)COc1ccnc(C(F)(F)F)n1	37
CC(C)[C@H](NC(=O)COc1cccc2ccccc12)C(=O)N[C@@H](CC(=O)O)C(=O)CSc1nc2ccccc2o1	> 200
CC(C)[C@H](NC(=O)COc1cccc2ccccc12)C(=O)N[C@@H](CC(=O)O)C(=O)COn1nnc2ccccc2c1=O	137
CC(C)[C@H](NC(=O)COc1cccc2ccccc12)C(=O)N[C@@H](CC(=O)O)C(=O)COc1nc2ccccc2[nH]1	> 200
CC(C)[C@H](NC(=O)COc1cccc2ccccc12)C(=O)N[C@@H](CC(=O)O)C(=O)COc1cc(C(F)(F)F)nn1-c1ccccc1	28
CC(C)[C@H](NC(=O)COc1cccc2ccccc12)C(=O)N[C@@H](CC(=O)O)C(=O)CSc1ncc[nH]1	> 200
CC(C)[C@H](NC(=O)COc1cccc2ccccc12)C(=O)N[C@@H](CC(=O)O)C(=O)CSc1nccc(C(F)(F)F)n1	> 200

biological target: Caspase-8 (Homo sapiens) (UniProt Q14790); assay: Binding affinity against Caspase-8; conditions: not given
Sequence (Q14790 217-374 limits assumed): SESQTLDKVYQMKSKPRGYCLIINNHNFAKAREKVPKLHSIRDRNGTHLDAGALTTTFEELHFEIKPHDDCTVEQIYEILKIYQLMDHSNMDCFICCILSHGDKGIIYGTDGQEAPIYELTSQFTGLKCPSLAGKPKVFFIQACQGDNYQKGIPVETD
Sequence (Q14790 385-479 limits assumed): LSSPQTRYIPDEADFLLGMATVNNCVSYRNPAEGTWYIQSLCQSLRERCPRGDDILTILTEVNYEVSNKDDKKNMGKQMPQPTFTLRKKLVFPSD

SMILES	k3/ki
CC(C)[C@H](NC(=O)COc1cccc2ccccc12)C(=O)N[C@@H](CC(=O)O)C(=O)COc1ncnc2ccccc12	4 1/m/s
CC(C)[C@H](NC(=O)COc1cccc2ccccc12)C(=O)N[C@@H](CC(=O)O)C(=O)COc1ccnc(C(F)(F)F)n1	3200 1/m/s
CC(C)[C@H](NC(=O)COc1cccc2ccccc12)C(=O)N[C@@H](CC(=O)O)C(=O)CSc1nc2ccccc2o1	0 1/m/s
CC(C)[C@H](NC(=O)COc1cccc2ccccc12)C(=O)N[C@@H](CC(=O)O)C(=O)COn1nnc2ccccc2c1=O	18200 1/m/s
CC(C)[C@H](NC(=O)COc1cccc2ccccc12)C(=O)N[C@@H](CC(=O)O)C(=O)COc1nc2ccccc2[nH]1	2 1/m/s
Cc1cc(C)nc(OCC(=O)[C@H](CC(=O)O)NC(=O)[C@@H](NC(=O)COc2cccc3ccccc23)C(C)C)n1	0 1/m/s
CC(C)[C@H](NC(=O)COc1cccc2ccccc12)C(=O)N[C@@H](CC(=O)O)C(=O)COc1cc(C(F)(F)F)nn1-c1ccccc1	2270 1/m/s
CC(C)[C@H](NC(=O)COc1cccc2ccccc12)C(=O)N[C@@H](CC(=O)O)C(=O)CSc1ncc[nH]1	0 1/m/s
CC(C)[C@H](NC(=O)COc1cccc2ccccc12)C(=O)N[C@@H](CC(=O)O)C(=O)CSc1nccc(C(F)(F)F)n1	0 1/m/s
